Test results as given in patent US8598355B2, “Amide compound” (Astellas Pharma Inc., priority 2008, dated 2013).

Key:
EP4 receptor = target: T1, EP4 receptor (Homo sapiens, UniProt P35408); experiment: EP4 receptor antagonistic activity by measurement of cAMP amount in human Jurkat cells (HTRF); assay type: cell-based; conditions: inhibition of cAMP, PGE2 100 nM
T1 construct: endogenous in cells; host or cells: Jurkat cells (human leukemia T lymphoma), no transfection described
Description: Evaluation Test of EP4 Receptor Antagonistic Activity by Measurement of cAMP Amount in Human Jurkat Cells
Jurkat cells (derived from human leukemia T lymphoma) were cultured with RPMI1640 (added with 10% fetal bovine serum) using a F75 flask. After proliferation to semiconfluency, indomethacin having a final concentration of 5 μM was added thereto, and the cells were further cultured for 18 hours. The cells were collected in a 15-mL Spitz tube, prepared to be 1×10^6 cells/mL using a Cell Banker (Mitsubishi Kagaku Iatron), and stored at −80° C. until used for assay. The cells were cultured in a CO2 incubator (37° C., 5% CO2).
A cAMP HiRange kit (Cisbio international) was used for cAMP measurement. A test compound, PGE2, and the cells were diluted and prepared with an assay buffer. The test compound was prepared to have a 3-fold concentration relative to the final concentration, PGE2 was prepared to be 300 nM, and the Jurkat cells frozen stored were prepared to be 1×10^6 cells/mL by thawing them at 37° C. To a 384-well U-bottom black microplate (Corning) were added the test compound, the cells, and PGE2 in this order in each in an amount of 5 μL, followed by shaking with a plate shaker and incubating at room temperature for 30 minutes. After incubation, 5 μL of a d2 reagent which had been diluted 0.6-fold with a lysis buffer was added to each well, followed by shaking with a plate shaker. Subsequently, 5 μL of an europium cryptate reagent which had been diluted 0.6-fold with a lysis buffer was added to each well, followed by shaking with a plate shaker and incubating at room temperature for 60 minutes under light shielding. After incubation, the fluorescence of the cryptate at 620 nm and the fluorescence of the d2 at 655 nm were measured using ARVO1420 (PerkinElmer). The cAMPs of 280, 70, 17.5, 4.38, 1.09, 0.27, and 0.068 nM were measured simultaneously for creating a standard curve. All measurements were performed in quadruplicate, and inhibitory rates were calculated by determining the cAMP amount of each test sample to the value obtained by subtracting the cAMP amount of the group without addition of PGE2 from the cAMP amount of the group with addition of PGE2 of 100 nM. IC50 values were calculated by a Logistic regression method.
In this connection, as the “assay buffer” and “lysis buffer” above, those as shown below were used:
Assay buffer; 1×HBSS (Hanks buffered salt solution, Nissui Pharmaceutical Co., Ltd.), 20 mM HEPES (pH 7.4, Nakarai Tesque), 0.5 mM IBMX (3-isobutyl-1-methylxanthine, WAKO), 0.02% CHAPS (Sigma), 0.1% Bovine serum albumin (Sigma), 2 μM Indomethacin (Sigma)
Lysis buffer; 50 mM NaPO4, 0.8 M KF, 1% Triton X-100, 0.2% Bovine serum albumin

rat EP4 receptor [1] = target: T2, rat EP4 receptor (Rattus norvegicus, UniProt P43114); experiment: Rat EP4 receptor antagonistic activity by measurement of cAMP amount (rEP4 cAMP HTRF assay, CHO cells); assay type: cell-based; parameters: expressed in transfected cells; conditions: inhibition of cAMP, PGE2 100 nM, CHO cells expressing rat EP4
Description: Evaluation Test of Rat EP4 Receptor Antagonistic Activity by Measurement of cAMP Amount
CHO cells in which rat EP4 had been forced to be expressed were seeded in 96-well plates at 2×10^4 cells/100 μL and cultured overnight. The culture medium was replaced with 2 μM Indomethacin/0.1% BSA/alpha-MEM, and further, after 60 minutes, replaced with 1 mM IBMX/2 μM Indomethacin/0.1% BSA/alpha-MEM. After 10 minutes, the test compound was added, and further, after 10 minutes, PGE2 was added at a final concentration of 100 nM. The cells were cultured and reacted in a CO2 incubator (37° C., 5% CO2). After 30 minutes, the culture medium was removed and 100 μL/well of 0.2% Triton X-PBS was added for lysis of the cells. The cAMP contained in this cell lysis solution was measured with a cAMP HiRange kit (Cisbio international). The cell lysis solution was disperesed at 10 μL each into a 384-well U-bottom black microplate (Corning), and a d2 reagent and an europium cryptate reagent were added in this order to each well, each in an amount of 5 μL. It was incubated at room temperature for 60 minutes under light shielding. After incubation, the fluorescence of the cryptate at 620 nm and the fluorescence of the d2 at 655 nm were measured using ARVO1420 (PerkinElmer). The cAMPs of 280, 70, 17.5, 4.38, 1.09, 0.27, and 0.068 nM were measured simultaneously for creating a standard curve. The inhibitory rates were calculated by determining the cAMP amount of each test sample to the value obtained by subtracting the cAMP amount of the group without addition of PGE2 from the cAMP amount of the group with addition of PGE2 of 100 nM. IC50 values are calculated by a Logistic regression method.

rat EP4 receptor [2] = target: T2, rat EP4 receptor; experiment: Evaluation test of rat EP4 receptor affinity ([3H]PGE2 binding, membrane fraction of HEK293 cells expressing rat EP4); parameters: expressed in transfected cells; host or cells: HEK293 cells, transient transfection with Lipofectamine 2000; membrane fraction; conditions: [3H]PGE2 0.3 nM
Description: Evaluation Test of Rat EP4 Receptor Affinity
Cell Culturing and Transfection
Using a 10 cm collagen-coated dish (Asahi Glass), HEK293 cells were cultured in D-MEM culture medium, the culture medium was removed at a confluence (90 to 100% density state) and washed with a phosphate buffer saline (PBS), and then the cells were detached with N,N,N′,N′-tetrakis(carboxymethyl)ethylenediamine (EDTA). The number of the cells were counted and seeded on a 15 cm collagen-coated dish to a confluence of 70%. On the next day, to an Opti-MEM culture medium at 1.2 mL/dish was added Lipofectamine 2000 (Invitrogen) at 60 μL/dish, followed by leaving to stand at room temperature for 5 minutes. A plasmid in which rat EP4 (Sequence Number 1) had been inserted into a TA cloning site of pcDNA3.1-V5-His-topo was added thereto at 15 μg/dish. After leaving to stand at room temperature for 30 minutes, the resultant was added to the dish and cultured for 20 to 24 hours. The cell culture was carried out in a CO2 incubator (37° C., 5% CO2).
Preparation of Membrane Fraction
The culture medium was removed by suction, 10 mL of cooled PBS was added thereto per 15 cm dish, and the cells were scraped using a cell scraper (Sumitomo Bakelite). They were washed with cooled PBS (1,200 rpm, 4° C., 5 min), and then suspended in 6 mL of cooled 20 mM Tris-HCl (pH 7.4; Nakalai Tesque Inc., including 5 mM EDTA (Nakalai Tesque Inc.) per dish and the resultant was homogenized using a Polytron and the homogenate was centrifuged (26,000 rpm, 20 min, 4° C.). The obtained precipitate was resuspended in cooled 20 mM Tris-HCl and homogenized again using a Polytron, and the homogenate was centrifuged (26,000 rpm, 20 min, 4° C.). The obtained precipitate was resuspended in 50 mM HEPES (pH 7.5; Dojindo Laboratories) at 1 mL per dish, homogenized using a Polytron, and freeze-stored at −80° C. as a membrane fraction. At this time, a part thereof was used for the measurement of the protein concentration. Measurement of the protein concentration was carried out in duplicate using a Bio-Rad Protein assay kit (Bio-Rad Laboratories) in accordance with the appended standard Protocol.
[^3H]PGE2 50 μL (final concentration 0.3 nM; Perkin Elmer), 100 μL (20 μg/well) of a membrane fraction prepared from the rat EP4 expression cell and 50 μL of a test compound were mixed in a 96-well microplate (Sumitomo Bakelite), incubated at room temperature for 1 hour, filtered by suction on a UniFilter-96 GF/B (Perkin Elmer) using a FilterMate Harvester (Perkin Elmer), and then washed three times with 300 μL/well of a cooled assay buffer. Dilution of [^3H]PGE2 and the membrane fraction was carried out using an assay buffer (50 mM HEPES, 10 mM MgCl2), and dilution of the test compound and the unlabeled PGE2 was carried out using DMSO and an assay buffer. Further, in the case of the addition of a human serum albumin (HSA), dilution was carried out using an assay buffer containing 4% HSA (final concentration 1%; Sigma). The UniFilter-96 GF/B was treated preliminarily by washing twice with 200 μL/well of a cooled assay buffer. The UniFilter-96 GF/B after filtration was dried in a dryer overnight, 50 μL/well of MicroScint20 (Perkin Elmer) was added thereto, and then the radioactivity was measured using a TopCount (Perkin Elmer). For measurement of the non-specific binding, an unlabeled PGE2 (final concentration 1 μM; Cayman) was added. All of the measurements were carried out in duplicate, and the specific binding amount was determined by subtracting the non-specific binding amount from the total binding amount. The Ki value was calculated according to the general methods.
In the connection, Ex represents the below-described Example Compound number.

rat EP4 receptor [3] = target: T2, rat EP4 receptor; experiment: In vivo rat EP4 receptor antagonistic activity (ONO-4819/LPS, plasma TNF-α); conditions: SD rat, oral
Description: Evaluation Test of In Vivo Rat EP4 Receptor Antagonistic Activity
A solution of PEG 400:20% Tween 80:aqueous 1 M NaHCO3 solution=1:4:5 of a test compound was orally administered to a SD rat (male, 6-week old) under non-fasting conditions, and after 1 hour, ONO-4819 was administered subcutaneously to the back of the rat. After 30 minutes, Lipopolysaccharide (LPS, 0.01 mg/kg) was administered to the tail vein without anesthesia, and after 60 minutes, 0.5 mL of heparin blood was collected from the fundus under ether anesthesia. The blood sample was centrifuged (3000 rpm, 10 minutes) to separate the plasma, and then the TNF-α concentration in the rat plasma was measured by an ELISA kit (see Hepatology Research Journal, vol. 21, 252-260, 2001). A value obtained by subtracting the TNF-α concentration of the group treated with ONO-4819 from the TNF-α concentration of the group not treated with ONO-4819 was taken as 100%, and the inhibitory rates to the value were calculated for the test compounds.
In this connection, Ex represents the below-described Example compound number.

T2 sequence (P43114 whole entry): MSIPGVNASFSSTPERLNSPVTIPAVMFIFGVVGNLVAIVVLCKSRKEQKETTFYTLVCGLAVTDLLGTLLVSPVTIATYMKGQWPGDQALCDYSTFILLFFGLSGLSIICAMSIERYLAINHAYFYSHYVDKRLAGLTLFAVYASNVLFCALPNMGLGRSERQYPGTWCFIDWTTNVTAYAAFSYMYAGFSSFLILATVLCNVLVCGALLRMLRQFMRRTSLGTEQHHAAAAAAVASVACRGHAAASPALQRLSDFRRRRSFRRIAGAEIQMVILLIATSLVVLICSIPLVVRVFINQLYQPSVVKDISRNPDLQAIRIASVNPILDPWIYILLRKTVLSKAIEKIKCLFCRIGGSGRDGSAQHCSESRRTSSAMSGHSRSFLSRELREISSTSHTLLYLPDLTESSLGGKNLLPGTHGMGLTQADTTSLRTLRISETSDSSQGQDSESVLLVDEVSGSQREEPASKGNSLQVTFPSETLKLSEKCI
T1 sequence (P35408 whole entry): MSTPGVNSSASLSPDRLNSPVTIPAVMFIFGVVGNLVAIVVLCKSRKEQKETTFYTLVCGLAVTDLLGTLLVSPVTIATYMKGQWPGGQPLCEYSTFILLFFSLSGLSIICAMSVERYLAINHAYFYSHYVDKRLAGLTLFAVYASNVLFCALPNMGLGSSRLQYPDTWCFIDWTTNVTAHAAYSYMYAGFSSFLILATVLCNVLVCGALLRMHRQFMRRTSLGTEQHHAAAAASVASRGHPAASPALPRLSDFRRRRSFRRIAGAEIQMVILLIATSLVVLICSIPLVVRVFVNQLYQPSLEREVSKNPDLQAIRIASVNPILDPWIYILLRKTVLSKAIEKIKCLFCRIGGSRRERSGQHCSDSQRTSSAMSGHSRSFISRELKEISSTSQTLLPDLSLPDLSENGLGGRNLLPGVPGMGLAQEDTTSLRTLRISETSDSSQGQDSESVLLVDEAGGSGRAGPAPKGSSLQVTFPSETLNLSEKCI

IC50 (EP4 receptor) [nM]	IC50 (rat EP4 receptor [1]) [nM]	Ki (rat EP4 receptor [2]) [nM]	Inhibitory rate (%) (rat EP4 receptor [3]; dose 0.01 mg/kg)	melting point	Inhibitory rate (%) (rat EP4 receptor [3]; dose 0.003 mg/kg)	Structure (SMILES)
0.11	0.99	0.76	–	–	–	C[C@H](NC(=O)c1cccc2ccn(Cc3ccc(-c4ccccc4)cc3)c12)c1ccc(C(=O)O)cc1 [Example 3, 4-[(1S)-1-({[1-(biphenyl-4-ylmethyl)-1H-indol-7-yl]carbonyl}amino)ethyl]benzoic acid]
–	–	2.6	71	208 to 210 °C	–	O=C(O)c1ccc(CNC(=O)c2cc(C(F)(F)F)cc3ccn(CCOc4ccc(Cl)cc4)c23)cc1 [Example 215]
–	–	2.1	–	251 to 252 °C (dec.)	71	Cc1cc(C(=O)NC[C@H]2CC[C@H](C(=O)O)CC2)c2c(ccn2Cc2cc3ccccc3cn2)c1 [Example 224]
